Consider 4 molecules from EP1075525B1, “DNA POLYMERASE FROM PYROBACULUM ISLANDICUM” (Roche Diagnostics GmbH, priority 1999, dated 2000).

The test system of this test is DNA polymerase of P. islandicum. Put plainly: Non-radioactive DNA polymerase activity assay: influence of inhibitors and ions. Format: biochemical, Pyrobaculum islandicum. The settings on record: for DNA polymerase activity: pH 7.5, 0.5 mM MgCl2, 0 mM KCl, 0.5 U.

Turning to `C[C@@]1(CO)[C@H](O)CC[C@@]2(C)[C@H]1CC[C@H]1C[C@@H]3C[C@@]12CC[C@]3(O)CO` [Aphidicolin], the DNA polymerase activity came out at 100% (50 µM (17 µg/ml) aphidicolin, 75°C); 70% (200 µM (68 µg/ml) aphidicolin, 75°C); 55% (500 µM (170 µg/ml) aphidicolin, 75°C); 21% (2000 µM (680 µg/ml) aphidicolin, 75°C).

For the molecule `[Cl-].[K+]` [KCl], the residual activity (in the presence of 100 mM KCl, 75°C, pH 7.3, 0.5 mM MgCl2) is 7%.

In the case of `CCN1C(=O)C=CC1=O` [N-Ethylmaleimid], the DNA polymerase activity reads like this: (1 mM N-Ethylmaleimid, preincubation of enzyme at 90°C for 20 min, 75°C) 40%; (2 mM N-Ethylmaleimid, preincubation of enzyme at 90°C for 20 min, 75°C) 30%; (5 mM N-Ethylmaleimid, preincubation of enzyme at 90°C for 20 min, 75°C) 0%. For the setting “after a preincubation with 5 mM NEM”, the “DNA polymerase activity (in words)” value is “total loss of activity”.

Consider `Nc1nc2c(ncn2[C@H]2CC[C@@H](COP(=O)(O)OP(=O)(O)OP(=O)(O)O)O2)c(=O)[nH]1` [ddGTP], for which the DNA polymerase activity is, setting by setting: (ddGTP/dGTP = 5, 75°C) 95%; (ddGTP/dGTP = 20, 75°C) 53%. In addition, the “inhibition of DNA polymerase (in words)” value (ddGTP/dGTP ratio of 2) is recorded as “No inhibition”.

As a reminder, the residual activity is the signal under treatment as a percentage of the control signal.
